Each structure is given as a SMILES string.

The test deals with human A2A adenosine receptor (Homo sapiens (Human), UniProt P29274). Kind of test: A2A receptor affinity binding assay (radioligand filtration binding or SPA, [3H]SCH58261). As to conditions: membranes from HEK293 or CHO cells expressing human A2A; Method (A) filtration or Method (B) SPA.
human A2A adenosine receptor, sequence (P29274 whole entry): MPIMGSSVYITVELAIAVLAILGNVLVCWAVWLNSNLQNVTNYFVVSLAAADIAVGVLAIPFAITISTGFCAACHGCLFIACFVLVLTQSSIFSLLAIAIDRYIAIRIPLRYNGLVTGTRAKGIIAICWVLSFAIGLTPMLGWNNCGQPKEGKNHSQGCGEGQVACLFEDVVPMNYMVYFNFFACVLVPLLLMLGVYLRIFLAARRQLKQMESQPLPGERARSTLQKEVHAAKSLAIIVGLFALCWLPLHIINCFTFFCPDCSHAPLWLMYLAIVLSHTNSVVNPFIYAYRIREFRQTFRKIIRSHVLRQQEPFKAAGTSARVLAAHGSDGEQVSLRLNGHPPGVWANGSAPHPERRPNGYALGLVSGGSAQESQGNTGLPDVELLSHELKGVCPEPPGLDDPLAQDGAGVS
In the case of `COc1cccc2c1nc(N)n1nc([C@H]3C[C@@H](c4ncc(C(C)(C)N)nc4C)C3)nc21` [Ex-89, 2-((1s,3s)-3-(5-(2-aminopropan-2-yl)-3-methylpyrazin-2-yl)cyclobutyl)-7-methoxy-[1,2,4]triazolo[1,5-c]quinazolin-5-amine], the IC50 was 27.7 nM.
In turn, `COc1cccc2c1nc(N)n1nc([C@H]3C[C@H](c4cnc(CN)nc4)C3)nc21` [Ex-113, 2-{trans-3-[2-(aminomethyl)pyrimidin-5-yl]cyclobutyl}-7-methoxy[1,2,4]triazolo[1,5-c]quinazolin-5-amine] gave an IC50 of 2.2 nM.
As for `COc1cccc2c1nc(N)n1nc([C@H]3C[C@H](c4ccc(CN5CCNCC5)cc4)C3)nc21` [Ex-98, 7-methoxy-2-(trans-3-{4-[(piperazin-1-yl)methyl]phenyl}cyclobutyl)[1,2,4]triazolo[1,5-c]quinazolin-5-amine], the figure is 1.6 nM; as for `COc1cccc2c1nc(N)n1nc([C@H]3C[C@H](c4ncc5c(n4)CNC5)C3)nc21` (single isomer, unassigned) [Ex-108, 2-((trans)-3-(6,7-dihydro-5H-pyrrolo[3,4-d]pyrimidin-2-yl)cyclobutyl)-7-methoxy-[1,2,4]triazolo[1,5-c]quinazolin-5-amine], 10.7 nM; as for `COc1cccc2c1nc(N)n1nc([C@H]3C[C@@H](c4ncc(C5(O)COC5)cc4C)C3)nc21` [Ex-119, 3-{6-[cis-3-(5-amino-7-methoxy[1,2,4]triazolo[1,5-c]quinazolin-2-yl)cyclobutyl]-5-methylpyridin-3-yl}oxetan-3-ol], 1.8 nM.
As for `COc1cccc2c1nc(N)n1nc([C@H]3C[C@@H](c4ccc(C5(N)CC(F)(F)C5)cn4)C3)nc21` [Ex-140, 2-((1s,3s)-3-(5-(1-amino-3,3-difluorocyclobutyl)pyridin-2-yl)cyclobutyl)-7-methoxy-[1,2,4]triazolo[1,5-c]quinazolin-5-amine], the figure is 5.4 nM; as for `Cc1nc(C(C)(C)N)cnc1[C@H]1C[C@@H](c2nc3c4cccc(F)c4nc(N)n3n2)C1` [Ex-134, 2-{cis-3-[5-(2-aminopropan-2-yl)-3-methylpyrazin-2-yl]cyclobutyl}-7-fluoro[1,2,4]triazolo[1,5-c]quinazolin-5-amine], 148 nM; as for `COc1cc(F)cc2c1nc(N)n1nc([C@H]3C[C@@H](c4ccc(C(C)(C)O)cc4)C3)nc21` [Ex-50, 2-{4-[cis-3-(5-amino-9-fluoro-7-methoxy [1,2,4]triazolo [1,5-c]quinazolin-2-yl)cyclobutyl]phenyl} propan-2-ol], 1 nM.
The figure for `COc1cccc2c1nc(N)n1nc([C@H]3C[C@@H](c4ccc([C@H](N)C(F)F)cn4)C3)nc21` (single isomer, unassigned) [Ex-105] is 2.7 nM; for `COc1cccc2c1nc(N)n1nc([C@H]3C[C@@H](c4ccc(CN5CCNCC5)cc4)C3)nc21` [Ex-97, 7-methoxy-2-(cis-3-{4-[(piperazin-1-yl)methyl]phenyl}cyclobutyl)[1,2,4]triazolo[1,5-c]quinazolin-5-amine] it is 0.3 nM.
Regarding `COc1cccc2c1nc(N)n1nc([C@H]3C[C@H](c4ccc(C(N)C(F)F)cn4)C3)nc21` (stereo partly drawn) [Ex-73, 2-{trans-3-[5-(1-amino-2,2-difluoroethyl)pyridin-2-yl]cyclobutyl}-7-methoxy[1,2,4]triazolo[1,5-c]quinazolin-5-amine], the IC50 was 4.8 nM.
The figure for `COc1cccc2c1nc(N)n1nc([C@H]3C[C@H](c4cnc(N5CCN[C@H](C)C5)c(C)c4)C3)nc21` [Ex-102, 7-methoxy-2-(trans-3-{5-methyl-6-[(3R)-3-methylpiperazin-1-yl]pyridin-3-yl}cyclobutyl)[1,2,4]triazolo[1,5-c]quinazolin-5-amine] is 1.5 nM; for `Cc1nc(C(C)(C)N)cnc1[C@H]1C[C@H](c2nc3c4cccc(F)c4nc(N)n3n2)C1` [Ex-133, 2-{trans-3-[5-(2-aminopropan-2-yl)-3-methylpyrazin-2-yl]cyclobutyl}-7-fluoro[1,2,4]triazolo[1,5-c]quinazolin-5-amine] it is 5.7 nM.
